From patent US6054435A, “6-O-substituted macrolides having antibacterial activity” (priority 1999, dated 2000)
≈ marks a conversion by molar mass, not a printed value.

Experiments:
Assay in all cases: in vitro antibacterial activity (MIC), agar dilution
Type in all cases: cell-based
[1] = system: Mycobacterium smegmatis ATCC 114; details: organism code UU; BHI agar, 35-37° C., 20 to 24 hours; unit assumed
Method in brief: (§1)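 Endpoint: lowest concentration with no growth, slight haze or sparsely isolated colonies at the inoculum spot, judged against a compound-free BHI control. Strains were replicator-inoculated at 1:100 (1:10 for Streptococcus and other slow growers).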

[2] = system: Staphylococcus epidermidis 3519; details: organism code HH; BHI agar, 35-37° C., 20 to 24 hours; unit assumed
Method in brief: as §1

[3] = system: Staphylococcus aureus 1775; details: organism code GG; BHI agar, 35-37° C., 20 to 24 hours; unit assumed
Method in brief: as §1

[4] = system: Streptococcus pyogenes PIU 2548; details: organism code NN; BHI agar, 35-37° C., 20 to 24 hours; unit assumed
Method in brief: as §1

Candida albicans CCH 442 = details: organism code TT; BHI agar, 35-37° C., 20 to 24 hours; unit assumed
Method in brief: as §1

Escherichia coli SS = details: organism code RR; BHI agar, 35-37° C., 20 to 24 hours; unit assumed
Method in brief: as §1

[5] = system: Nocardia Asteroides ATCC9970; details: organism code VV; BHI agar, 35-37° C., 20 to 24 hours; unit assumed
Method in brief: as §1

[6] = system: Staphylococcus aureus CMX 553; details: organism code FF; BHI agar, 35-37° C., 20 to 24 hours; unit assumed
Method in brief: as §1

[7] = system: Streptococcus Pneumonia 5979; details: organism code ZZ; BHI agar, 35-37° C., 20 to 24 hours; unit assumed
Method in brief: as §1

[8] = system: Streptococcus agalactiae CMX 508; details: organism code KK; BHI agar, 35-37° C., 20 to 24 hours; unit assumed
Method in brief: as §1

[9] = system: Streptococcus bovis A-5169; details: organism code JJ; BHI agar, 35-37° C., 20 to 24 hours; unit assumed
Method in brief: as §1

[10] = system: Staphylococcus aureus A-5278; details: organism code CC; BHI agar, 35-37° C., 20 to 24 hours; unit assumed
Method in brief: as §1

[11] = system: Streptococcus pyogenes 930; details: organism code MM; BHI agar, 35-37° C., 20 to 24 hours; unit assumed
Method in brief: as §1

[12] = system: Streptococcus Pneumonia GYR 1171; details: organism code YY; BHI agar, 35-37° C., 20 to 24 hours; unit assumed
Method in brief: as §1

[13] = system: Micrococcus luteus ATCC 4698; details: organism code PP; BHI agar, 35-37° C., 20 to 24 hours; unit assumed
Method in brief: (§2)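 Agar dilution on BHI agar with twelve successive compound dilutions; plates inoculated by Steers replicator with 1:100 culture dilutions (1:10 for slow growers such as Streptococcus). MIC is the lowest concentration giving no growth, slight haze or sparse colonies versus a drug-free control.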

[14] = system: Haemophilis Influenzae DILL AMP R; details: organism code WW; BHI agar, 35-37° C., 20 to 24 hours; unit assumed
Method in brief: as §1

Escherichia coli DC-2 = details: organism code SS; BHI agar, 35-37° C., 20 to 24 hours; unit assumed
Method in brief: as §1

[15] = system: Enterococcus faecium ATCC 8043; details: organism code II; BHI agar, 35-37° C., 20 to 24 hours; unit assumed
Method in brief: as §1

[16] = system: Staphylococcus aureus A5177; details: organism code BB; BHI agar, 35-37° C., 20 to 24 hours; unit assumed
Method in brief: as §1

[17] = system: Staphylococcus aureus NCTC10649M; details: organism code EE; BHI agar, 35-37° C., 20 to 24 hours; unit assumed
Method in brief: as §1

[18] = system: Staphylococcus aureus ATCC 6538P; details: organism code AA; BHI agar, 35-37° C., 20 to 24 hours; unit assumed
Method in brief: as §1

Escherichia coli JUHL = details: organism code QQ; BHI agar, 35-37° C., 20 to 24 hours; unit assumed
Method in brief: as §1

[19] = system: Streptococcus Pneumonia 5649; details: organism code ZZA; BHI agar, 35-37° C., 20 to 24 hours; unit assumed
Method in brief: as §1

[20] = system: Micrococcus luteus ATCC 9341; details: organism code OO; BHI agar, 35-37° C., 20 to 24 hours; unit assumed
Method in brief: as §2

[21] = system: Streptococcus pyogenes EES61; details: organism code LL; BHI agar, 35-37° C., 20 to 24 hours; unit assumed
Method in brief: as §1

[22] = system: Streptococcus Pneumonia ATCC6303; details: organism code XX; BHI agar, 35-37° C., 20 to 24 hours; unit assumed
Method in brief: as §1

[23] = system: Staphylococcus aureus CMX 642A; details: organism code DD; BHI agar, 35-37° C., 20 to 24 hours; unit assumed
Method in brief: as §1

In the case of `CC[C@H]1OC(=O)[C@H](C)C(=O)[C@H](C)[C@@H](O[C@@H]2O[C@H](C)C[C@H](N(C)C)[C@H]2O)[C@](C)(OC/C=C/c2ccc3ncc(Br)cc3c2)C[C@@H](C)C(=O)[C@H](C)[C@H]2NC(=O)O[C@@]21C` [Example 38], the MIC [1] is reported as 0.39 µg/mL (≈ 0.462 µM), the MIC [2] is reported as 0.2 µg/mL (≈ 0.237 µM) and the MIC [3] is reported as 100 µg/mL (≈ 118 µM). The MIC [4] was 0.2 µg/mL (≈ 0.237 µM), the MIC (Candida albicans CCH 442) was greater than 100 µg/mL and the MIC (Escherichia coli SS) was 0.78 µg/mL (≈ 0.923 µM). The MIC [5] was 0.05 µg/mL (≈ 0.0592 µM), the MIC [6] was 0.2 µg/mL (≈ 0.237 µM) and the MIC [7] was 2 µg/mL (≈ 2.37 µM). The MIC [8] was 0.02 µg/mL (≈ 0.0237 µM), the MIC [9] was no more than 0.005 µg/mL and the MIC [10] was 100 µg/mL (≈ 118 µM). It also gave an MIC [11] of 3.1 µg/mL (≈ 3.67 µM), an MIC [12] of 0.03 µg/mL (≈ 0.0355 µM) and an MIC [13] of 0.2 µg/mL (≈ 0.237 µM). The MIC [14] was 2 µg/mL (≈ 2.37 µM), the MIC (Escherichia coli DC-2) was greater than 100 µg/mL and the MIC [15] was 0.05 µg/mL (≈ 0.0592 µM). The MIC [16] was 0.2 µg/mL (≈ 0.237 µM), the MIC [17] was 0.2 µg/mL (≈ 0.237 µM) and the MIC [18] was 0.2 µg/mL (≈ 0.237 µM). The MIC (Escherichia coli JUHL) was 100 µg/mL (≈ 118 µM), the MIC [19] was 0.25 µg/mL (≈ 0.296 µM) and the MIC [20] was 0.05 µg/mL (≈ 0.0592 µM). The MIC [21] was 0.02 µg/mL (≈ 0.0237 µM), the MIC [22] was 0.03 µg/mL (≈ 0.0355 µM) and the MIC [23] was 0.2 µg/mL (≈ 0.237 µM).
Molecule `CC[C@H]1OC(=O)[C@H](C)C(=O)[C@H](C)[C@@H](O[C@@H]2O[C@H](C)C[C@H](N(C)C)[C@H]2O)[C@](C)(OCC#Cc2ccc(-c3ccco3)s2)C[C@@H](C)C(=O)[C@H](C)[C@H]2NC(=O)O[C@@]21C` [Example 23] has an MIC [1] of 0.78 µg/mL (≈ 0.994 µM), an MIC [2] of 0.05 µg/mL (≈ 0.0637 µM) and an MIC [3] greater than 100 µg/mL. The MIC [4] was 0.1 µg/mL (≈ 0.127 µM), the MIC (Candida albicans CCH 442) was greater than 100 µg/mL and the MIC (Escherichia coli SS) was 0.39 µg/mL (≈ 0.497 µM). It also gave an MIC [5] of 0.02 µg/mL (≈ 0.0255 µM), an MIC [6] of 0.05 µg/mL (≈ 0.0637 µM) and an MIC [7] of 8 µg/mL (≈ 10.2 µM). The MIC [8] was no more than 0.005 µg/mL, the MIC [9] was 0.01 µg/mL (≈ 0.0127 µM) and the MIC [10] was greater than 100 µg/mL. It also gave an MIC [11] of 6.2 µg/mL (≈ 7.9 µM), an MIC [12] of 0.03 µg/mL (≈ 0.0382 µM) and an MIC [13] of 0.05 µg/mL (≈ 0.0637 µM). For the same molecule, the MIC [14] was 2 µg/mL (≈ 2.55 µM), the MIC (Escherichia coli DC-2) was 50 µg/mL (≈ 63.7 µM) and the MIC [15] was 0.02 µg/mL (≈ 0.0255 µM). It also gave an MIC [16] of 0.05 µg/mL (≈ 0.0637 µM), an MIC [17] of 0.05 µg/mL (≈ 0.0637 µM) and an MIC [18] of 0.05 µg/mL (≈ 0.0637 µM). For the same molecule, the MIC (Escherichia coli JUHL) was 50 µg/mL (≈ 63.7 µM), the MIC [19] was 0.25 µg/mL (≈ 0.318 µM) and the MIC [20] was 0.01 µg/mL (≈ 0.0127 µM). It also gave an MIC [21] of 0.1 µg/mL (≈ 0.127 µM), an MIC [22] of 0.03 µg/mL (≈ 0.0382 µM) and an MIC [23] of 0.05 µg/mL (≈ 0.0637 µM).
Work on `CC[C@H]1OC(=O)[C@H](C)C(=O)[C@H](C)[C@@H](O[C@@H]2O[C@H](C)C[C@H](N(C)C)[C@H]2O)[C@](C)(OC/C=C/c2cnc(-c3cncs3)s2)C[C@@H](C)C(=O)[C@H](C)[C@H]2NC(=O)O[C@@]21C` [Example 60] yielded an MIC [1] of 1.56 µg/mL (≈ 1.94 µM), an MIC [2] of 0.1 µg/mL (≈ 0.124 µM) and an MIC [3] greater than 100 µg/mL. It also gave an MIC [4] of 0.2 µg/mL (≈ 0.248 µM), an MIC (Candida albicans CCH 442) greater than 100 µg/mL and an MIC (Escherichia coli SS) of 0.2 µg/mL (≈ 0.248 µM). It also gave an MIC [5] of 0.01 µg/mL (≈ 0.0124 µM), an MIC [6] of 0.05 µg/mL (≈ 0.0621 µM) and an MIC [7] of 1 µg/mL (≈ 1.24 µM). It also gave an MIC [8] of 0.01 µg/mL (≈ 0.0124 µM), an MIC [9] of no more than 0.005 µg/mL and an MIC [10] greater than 100 µg/mL. For the same molecule, the MIC [11] was 3.1 µg/mL (≈ 3.85 µM), the MIC [12] was no more than 0.004 µg/mL and the MIC [13] was 0.02 µg/mL (≈ 0.0248 µM). The MIC [14] was 4 µg/mL (≈ 4.97 µM), the MIC (Escherichia coli DC-2) was 100 µg/mL (≈ 124 µM) and the MIC [15] was 0.02 µg/mL (≈ 0.0248 µM). It also gave an MIC [16] of 0.05 µg/mL (≈ 0.0621 µM), an MIC [17] of 0.1 µg/mL (≈ 0.124 µM) and an MIC [18] of 0.1 µg/mL (≈ 0.124 µM). For the same molecule, the MIC (Escherichia coli JUHL) was 50 µg/mL (≈ 62.1 µM), the MIC [19] was 0.25 µg/mL (≈ 0.311 µM) and the MIC [20] was no more than 0.005 µg/mL. It also gave an MIC [21] of 0.01 µg/mL (≈ 0.0124 µM), an MIC [22] of no more than 0.004 µg/mL and an MIC [23] of 0.05 µg/mL (≈ 0.0621 µM).
